Patent US20180002295A1, “Compositions and Methods for Treating Anxiety and Compulsive Behavior” (University of Iowa Research Foundation, priority 2015, published 2018)
“Also recorded” adds a separate entry of the source.

Assays:
SAPAP3-deficient mice [1] = assay: Spray-induced grooming assay (baseline and spray-induced grooming) in SAPAP3-deficient mice; assay type: in vivo; conditions: compared with wild type
SAPAP3-deficient mice [2] = conditions: reference 4; cited from earlier work
[3] = intracerebroventricular infusion into left lateral ventricle for 7 days by osmotic minipump
[4] = intraperitoneal, 10 mg/kg/d, 10 mg/kg/day

SMILES	basal (baseline) grooming (SAPAP3-deficient mice [1]; [3])	spray-induced grooming (SAPAP3-deficient mice [1]; [3])	compulsive grooming leading to acquisition of facial lesions (SAPAP3-deficient mice [2])	basal (baseline) grooming (SAPAP3-deficient mice [1]; [4])	spray-induced grooming (SAPAP3-deficient mice [1]; [4])
CCOc1ccc2nc(N/C(=N/C(=O)CC)NC(=O)CC)nc(C)c2c1 [P5C6]	normalized	normalized	–	–	–
CNCCC(Oc1ccc(C(F)(F)F)cc1)c1ccccc1 (centres unmarked) [fluoxetine]	–	–	ameliorated	restored to wild type levels; also recorded: normalized	restored to wild type levels; also recorded: normalized
